For one assay, the target named is T1, S1PR2 (Homo sapiens, UniProt O95136).
T1 construct: expressed in transfected cells
In words: S1PR2 binding assay (competition with radioactively labeled S1P, SpA). As to conditions: membranes from stable cell line over expressing S1PR2, SpA beads; read-out: S1P2 EC50 (nM), S1PR2 binding EC50. Summed up:
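Scintillation proximity read-out after 2 h room-temperature incubation of compound, [3H]S1P and S1PR2-overexpressing cell membranes on WGA-coated beads. Buffer: 20 mM Tris pH 7.5, 100 mM NaCl, 10 mM MgCl2, 1 mM Na3VO4, 0.4% fatty-acid-free BSA; plates counted immediately after centrifugation.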

In assay [1] the target is T2, human GPCR sphingosine 1-phosphate receptor 5 (Homo sapiens, UniProt Q9H228).
T2 construct: host or cells: CHO
T2 sequence (Q9H228 whole entry): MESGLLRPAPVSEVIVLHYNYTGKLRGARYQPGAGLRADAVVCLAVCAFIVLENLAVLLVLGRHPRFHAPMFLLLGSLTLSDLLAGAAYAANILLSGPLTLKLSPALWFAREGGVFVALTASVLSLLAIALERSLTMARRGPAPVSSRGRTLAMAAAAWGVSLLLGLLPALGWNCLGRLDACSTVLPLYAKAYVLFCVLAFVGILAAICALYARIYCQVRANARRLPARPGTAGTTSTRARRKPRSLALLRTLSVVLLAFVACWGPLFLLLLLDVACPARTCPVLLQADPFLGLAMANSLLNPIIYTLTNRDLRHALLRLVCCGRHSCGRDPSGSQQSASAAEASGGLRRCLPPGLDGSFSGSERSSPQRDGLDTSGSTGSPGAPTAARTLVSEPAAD
In words: S1PR5 selectivity Ca2+ flux assay (antagonist readout). The format is cell-based. Particulars: CHO cells overexpressing human S1PR5 and Gq, agonist at EC80 (20 nM), read-out: S1P5 EC50 (nM), S1P5 antagonist EC50. The gist of the method:
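Antagonist readout: after 15 min compound preincubation at 37° C, human S1PR5/Gq CHO cells loaded with Fluo 8 dye received an EC80 challenge of S1PR5-specific agonist, and fluorescence was recorded for 3 min. Maximal-over-background ratios, normalized as % inhibition, gave IC50 by logistic fit.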
(Calcium assays in cells follow changes in intracellular calcium, usually with a dye or a luminescent sensor.)

In assay [2] the target is T3, human GPCR sphingosine 1-phosphate receptor 2 (Homo sapiens, UniProt O95136).
T3 construct: host or cells: CHO
T3 sequence (O95136 whole entry): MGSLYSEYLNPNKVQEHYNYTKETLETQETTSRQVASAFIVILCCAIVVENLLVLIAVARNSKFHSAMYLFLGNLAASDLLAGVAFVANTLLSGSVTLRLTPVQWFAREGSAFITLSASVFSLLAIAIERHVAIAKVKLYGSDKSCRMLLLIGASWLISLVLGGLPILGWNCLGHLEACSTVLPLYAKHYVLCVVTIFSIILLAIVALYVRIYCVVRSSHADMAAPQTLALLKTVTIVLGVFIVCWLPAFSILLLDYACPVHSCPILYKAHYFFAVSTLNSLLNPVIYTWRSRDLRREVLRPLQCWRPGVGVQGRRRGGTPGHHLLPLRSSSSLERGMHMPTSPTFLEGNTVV
In words: S1PR2 antagonist Ca2+ flux assay. The assay is classed as cell-based. Particulars: antagonist mode, CHO-S1PR2 cells, S1P at EC80, Ca2+ fluorescence; read-out: S1P2 EC50 (nM), S1P2 antagonist EC50. Summed up:
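Antagonist mode: 15 min after compound addition, S1P (EC80) stimulates Fluo8-loaded, 1 h-starved CHO-S1PR2 cells, Ca2+ read over 3 min; a prior 3-min read checks compound agonism. EC50 from peak/baseline fluorescence ratio, normalised versus vehicle and S1P EC50 (antagonist) or EC100 (agonist).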

Assay [3] deals with HFL-1 cells. Kind of assay: IL8 assay in the presence of Human Serum Albumin. As to conditions: HFL1, read-out: HSA IL8 EC50.
In assay [4] the target is T4, human GPCR sphingosine 1-phosphate receptor 1 (Homo sapiens, UniProt P21453).
T4 construct: host or cells: CHO
T4 sequence (P21453 whole entry): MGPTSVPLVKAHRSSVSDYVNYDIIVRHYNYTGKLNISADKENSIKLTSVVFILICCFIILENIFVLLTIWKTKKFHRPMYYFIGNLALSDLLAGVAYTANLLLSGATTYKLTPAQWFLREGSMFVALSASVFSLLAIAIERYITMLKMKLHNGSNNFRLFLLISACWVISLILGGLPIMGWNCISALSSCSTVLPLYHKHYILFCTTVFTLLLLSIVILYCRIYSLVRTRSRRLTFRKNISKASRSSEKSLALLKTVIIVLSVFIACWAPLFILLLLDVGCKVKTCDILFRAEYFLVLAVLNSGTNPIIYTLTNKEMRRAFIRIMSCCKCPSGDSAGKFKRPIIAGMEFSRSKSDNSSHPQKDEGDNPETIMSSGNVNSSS
In words: S1PR1 selectivity Ca2+ flux assay (antagonist readout). The assay is classed as cell-based. Particulars: antagonist readout, CHO cells overexpressing human S1PR1 and Gq, S1P at EC80 (6 nM); read-out: S1P1 EC50 (nM), S1P1 antagonist EC50. Summed up: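 Antagonist mode: S1P challenge follows 15 min compound preincubation at 37 °C. Cells are CHO stably expressing human S1PR1, serum-starved 1 h (0.1% FAF BSA), loaded with Fluo 8. Peak-over-baseline fluorescence ratio is normalized to positive/negative controls; IC50 from logistic curve fit.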

Assay [5] concerns HFL-1 cells. Kind of assay: IL-8 production assay (S1P induced IL-8). The assay is classed as cell-based. As to conditions: Homo sapiens, HFL1; S1P (1 μM) induced IL-8 in HFL-1 cells, starvation medium without HSA; read-out: IL8 EC50. Summed up:
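HFL-1 fibroblasts in low-serum medium were pretreated 1 h with a 10-point 1/3 series of compound starting at 30 μM (0.3% DMSO).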

pEC50: −log10 of the molar value.

T1 sequence (O95136 whole entry): as the sequence (O95136 whole entry) above

On to `N#Cc1cc2[nH]c(Cc3nn(CC(=O)O)c(=O)c4ccccc34)nc2cc1OCC1CC1` [compound 7, 2-[4-[[6-cyano-5-(cyclopropyl-methoxy)-1H-benzimidazol-2-yl]methyl]-1-oxo-phthalazin-2-yl]acetic acid], for which the EC50 at S1PR2 was 50.3 nM; in assay [1] it was 19800 nM; in assay [2], 8.26 nM; in assay [4], not below 19800 nM. The pEC50 was 7.95 in the assay on HFL-1 cells [3] and 8.44 in the assay with HFL-1 cells [5].

Turning to `N#Cc1cc2[nH]c(Cc3nn(CC(=O)N4CC[C@H](O)C4)c(=O)c4ccccc34)nc2cc1OCC(F)F` [compound 13, 6-(2,2-difluoro-ethoxy)-2-[[3-[2-[(3S)-3-hydroxy-pyrrolidin-1-yl]-2-oxo-ethyl]-4-oxo-phthalazin-1-yl]methyl]-3H-benzimidazole-5-carbonitrile], the EC50 was 221 nM at S1PR2, 19800 nM in assay [1], 120 nM in assay [2] and not below 19800 nM in assay [4]. For the same compound, the results for the pEC50 with HFL-1 cells [3] and in the assay with HFL-1 cells [5] were 6.60 and 6.98, respectively.

As to `CC(C(=O)NS(C)(=O)=O)c1nn(Cc2cn3cc(OCC4CC4)c(Cl)cc3n2)c2ccccc2c1=O` (stereo not drawn) [compound 15, 2-[1-[[7-chloro-6-(cyclopropyl-methoxy)imidazo-[1,2-a]pyridin-2-yl]methyl]-4-oxo-cinnolin-3-yl]-N-methylsulfonyl-propanamide], the EC50 was 378 nM at S1PR2, 19800 nM in assay [1], 5.57 nM in assay [2] and not below 19800 nM in assay [4]. Moreover, the pEC50 was 6.46 in the assay with HFL-1 cells [3] and 7.62 with HFL-1 cells [5].

`N#Cc1cc2[nH]c(Cn3cc(C(=O)O)c(=O)c4ccccc43)nc2cc1OCC(F)F` [Compound 80, 1-[[6-cyano-5-(2,2-difluoroethoxy)-1H-benzimidazol-2-yl]methyl]-4-oxo-quinoline-3-carboxylic acid]: the EC50 was 619 nM at S1PR2, 19800 nM in assay [1], 42.3 nM in assay [2] and not below 19800 nM in assay [4]. For the same compound, the pEC50 with HFL-1 cells [3] is 6.91; in the assay with HFL-1 cells [5] it was 7.33.

Regarding `CCOc1cc2[nH]n(Cc3nn(CC(=O)O)c(=O)c4ccccc34)c(=O)c2cc1Cl` [Compound 128, 2-[4-[(5-chloro-6-ethoxy-3-oxo-1H-indazol-2-yl)methyl]-1-oxo-phthalazin-2-yl]acetic acid], the EC50 on S1PR2 was 1970 nM; in assay [1], 19800 nM; in assay [2], 28.3 nM; in assay [4], not below 19800 nM. Besides, the results for the pEC50 in the assay on HFL-1 cells [3] and in the assay with HFL-1 cells [5] were 6.15 and 7.51, respectively.

With `N#Cc1cc2nn(Cc3nn(CC(=O)NC4CCCC4)c(=O)c4ccccc34)cc2cc1OCC(F)F` [Compound 208, 2-[4-[[6-cyano-5-(2,2-difluoroethoxy)indazol-2-yl)methyl]-1-oxo-phthalazin-2-yl]-N-cyclopentyl-acetamide], the EC50 on S1PR2 is 1510 nM; in assay [1], 19800 nM; in assay [2], 10800 nM; in assay [4] it was not below 19800 nM. Moreover, the pEC50 in the assay with HFL-1 cells [3] was 5.48; in the assay with HFL-1 cells [5] it was 5.00.

On to `N#Cc1cc2nc(Cc3nn(CC(=O)N4CCOCC4)c(=O)c4c3CCCC4)[nH]c2cc1OCC(F)F` [Compound 164, 6-(2,2-difluoroethoxy)-2-[[3-(2-morpholino-2-oxo-ethyl)-4-oxo-5,6,7,8-tetrahydrophthalazin-1-yl]methyl]-1H-benzimidazole-5-carbonitrile], for which the EC50 at S1PR2 was 129 nM; in assay [1], 19800 nM; in assay [2], 31.9 nM; in assay [4], not below 19800 nM. The values for the pEC50 in the assay on HFL-1 cells [3] and in the assay on HFL-1 cells [5] were 7.19 and 7.37, respectively.

`CC1(O)CCN(C(=O)Cn2nc(Cc3nc4cc(OCC(F)F)c(C#N)cc4[nH]3)c3ccccc3c2=O)C1` (stereo not drawn) [Compound 201, 6-(2,2-difluoroethoxy)-2-[[3-[2-(3-hydroxy-3-methyl-pyrrolidin-1-yl)-2-oxo-ethyl]-4-oxo-phthalazin-1-yl]methyl]-3H-benzimidazole-5-carbonitrile]: the EC50 at S1PR2 came out at 138 nM; in assay [1] it was 19800 nM; in assay [2] it was 44.8 nM; in assay [4], 13200 nM. Also, the pEC50 in the assay on HFL-1 cells [3] is 6.82; with HFL-1 cells [5] it was 7.20.

For the compound `N#Cc1cc2nc(Cc3nn(CC(=O)N4CCC[C@H]4CO)c(=O)c4ccccc34)[nH]c2cc1OCC(F)F` [Compound 198, 6-(2,2-difluoroethoxy)-2-[[3-[2-[(2S)-2-(hydroxymethyl)pyrrolidin-1-yl]-2-oxo-ethyl]-4-oxo-phthalazin-1-yl]methyl]-1H-benzimidazole-5-carbonitrile], the EC50 on S1PR2 was 486 nM; in assay [1], 19800 nM; in assay [2] it was 416 nM; in assay [4], not below 19800 nM. In addition, the results for the pEC50 in the assay with HFL-1 cells [3] and in the assay with HFL-1 cells [5] were 6.68 and 7.13, respectively.

Regarding `N#Cc1cc2[nH]c(Cn3nc(CC(=O)N4C[C@H](O)[C@@H](O)C4)c(=O)c4ccccc43)nc2cc1OCC1CC1` [compound 10, 6-(cyclopropyl-methoxy)-2-[[3-[2-[(3S,4S)-3,4-dihydroxy-pyrrolidin-1-yl]-2-oxo-ethyl]-4-oxo-cinnolin-1-yl]methyl]-3H-benzimidazole-5-carbonitrile], the EC50 is 11.6 nM at S1PR2, 19800 nM in assay [1], 4.55 nM in assay [2] and not below 19800 nM in assay [4]. Besides, the pEC50 in the assay on HFL-1 cells [3] is 8.50; in the assay on HFL-1 cells [5] it was 9.25.

Take `N#Cc1cc2[nH]c(Cc3nn(CC(=O)N4CCC(O)C(F)(F)C4)c(=O)c4ccccc34)nc2cc1OCC(F)F` (stereo not drawn) [Compound 212]: the EC50 at S1PR2 was 65.6 nM; in assay [1], 19800 nM; in assay [2], 19.2 nM; in assay [4], not below 19800 nM. The negative logarithm of the EC50 (pEC50) in the assay with HFL-1 cells [3] is 7.19; in the assay with HFL-1 cells [5] it was 7.98.

For the compound `CC(C(=O)O)c1nn(Cc2nc3cc(OCC4CC4)c(C#N)cc3[nH]2)c2ccccc2c1=O` (stereo not drawn) [Compound 107, 2-[1-[[6-cyano-5-(cyclopropylmethoxy)-1H-benzimidazol-2-yl]methyl]-4-oxo-cinnolin-3-yl]propanoic acid], the EC50 at S1PR2 stood at 52.9 nM; in assay [1] it was 19800 nM; in assay [2], 3.49 nM; in assay [4], 2150 nM. In addition, the pEC50 is 8.12 with HFL-1 cells [3] and 9.01 with HFL-1 cells [5].

With `O=C(Cn1nc(Cc2nc3cc(OCC(F)F)c(Cl)cc3[nH]2)c2c(F)ccc(F)c2c1=O)N1CCOCC1` [Compound 152, 4-[[6-chloro-5-(2,2-difluoroethoxy)-1H-benzimidazol-2-yl]methyl]-5,8-difluoro-2-(2-morpholino-2-oxo-ethyl)phthalazin-1-one], the EC50 at S1PR2 is 64 nM; in assay [1] it was 19800 nM; in assay [2], 19.1 nM; in assay [4] it was not below 19800 nM. The pEC50 in the assay with HFL-1 cells [3] was 6.70; in the assay with HFL-1 cells [5], 8.18.

`O=C(O)Cn1nc(Cc2nc3cc(Cl)c(OCC(F)F)cc3[nH]2)c2c(c1=O)CCCC2` [Compound 119, 2-[4-[[5-chloro-6-(2,2-difluoroethoxy)-1H-benzimidazol-2-yl]methyl]-1-oxo-5,6,7,8-tetrahydrophthalazin-2-yl]acetic acid]: the EC50 was 23.3 nM on S1PR2, 19800 nM in assay [1], 6.58 nM in assay [2] and not below 19800 nM in assay [4]. The pEC50 in the assay on HFL-1 cells [3] is 6.72; with HFL-1 cells [5] it was 7.95.

In the case of `N#Cc1cc2[nH]c(Cc3nn(CC(=O)N4CCC(O)(C5CC5)C4)c(=O)c4ccccc34)nc2cc1OCC(F)F` (stereo not drawn) [Compound 214, 2-[[3-[2-(3-cyclopropyl-3-hydroxy-pyrrolidin-1-yl)-2-oxo-ethyl]-4-oxo-phthalazin-1-yl]methyl]-6-(2,2-difluoroethoxy)-3H-benzimidazole-5-carbonitrile], the EC50 is 124 nM at S1PR2, 19800 nM in assay [1], 34.6 nM in assay [2] and not below 19800 nM in assay [4]. The figures for the pEC50 in the assay on HFL-1 cells [3] and in the assay on HFL-1 cells [5] were 7.48 and 8.15, respectively.

One may read the EC50 as the midpoint of the concentration-response curve. For orientation: pEC50 means the negative decadic logarithm of the EC50, by convention in mol/L.

Values taken from patent US20210315893A1 (Galapagos NV, priority 2017, published 2021).
